Test results from patent US20230348456A1, “QUINAZOLINONES, PHARMACEUTICAL COMPOSITIONS CONTAINING THE SAME, AND METHODS OF USING THE SAME” (Repare Therapeutics Inc., priority 2022, published 2023).

Target: recombinant human Myt1 (Homo sapiens (Human), UniProt Q99640)
Test: Myt1 enzymatic assay (ADP-Glo kinase assay)
Format: biochemical
Details: recombinant human Myt1 18 nM, ATP 10 μM
Experimental: Detection of Myt1 kinase activity utilized a recombinant human Myt1 kinase assay measuring the hydrolysis of ATP using a commercially available ADP-Glo Assay (ADP-Glo™ Kinase Assay from Promega, 10 000 assays, #V9102). Briefly, 5 μL recombinant human Myt1 (full length PKMYT1 recombinant human protein expressed in insect cells from Thermo Fisher #A33387; ˜80% purity) was prepared in reaction buffer (70 mM HEPES, 3 mM MgCl2, 3 mM MnCl2, 50 μg/ml PEG 20000, 3 μM Na-orthovanadate, 1.2 mM DTT) and added to 384 well white polystyrene, flat bottom well, non-treated, microplate (Corning #3572). After this, 5 μL of compounds (diluted in reaction buffer to 0.5% DMSO) was added to the microplate and the plate was spun briefly and incubated at 22° C. for 15 minutes. Ultra-Pure Adenosine Triphosphate (ATP) solution (ADP-Glo kit from Promega) was diluted in reaction buffer and 5 μL was added to the microplate, spun down briefly and incubated for 60 minutes at 30° C. The final Myt1 enzyme concentration was 18 nM and the final ATP concentration was 10 μM. After the 60-minute incubation, 15 μL of ADP-Glo reagent was added and the plate was spun briefly and sealed and incubated in the dark for 40 minutes at 22° C. Following this, 30 μL of kinase detection reagent was added per well and the plate was spun briefly, sealed and incubated for 45-60 minutes at 22° C. in the dark. Luminescence was read using the Envision (250 ms integration). The IC50 and the % max inhibition were calculated for each inhibitor compound tested.

Chain of recombinant human Myt1 (Q99640 whole entry): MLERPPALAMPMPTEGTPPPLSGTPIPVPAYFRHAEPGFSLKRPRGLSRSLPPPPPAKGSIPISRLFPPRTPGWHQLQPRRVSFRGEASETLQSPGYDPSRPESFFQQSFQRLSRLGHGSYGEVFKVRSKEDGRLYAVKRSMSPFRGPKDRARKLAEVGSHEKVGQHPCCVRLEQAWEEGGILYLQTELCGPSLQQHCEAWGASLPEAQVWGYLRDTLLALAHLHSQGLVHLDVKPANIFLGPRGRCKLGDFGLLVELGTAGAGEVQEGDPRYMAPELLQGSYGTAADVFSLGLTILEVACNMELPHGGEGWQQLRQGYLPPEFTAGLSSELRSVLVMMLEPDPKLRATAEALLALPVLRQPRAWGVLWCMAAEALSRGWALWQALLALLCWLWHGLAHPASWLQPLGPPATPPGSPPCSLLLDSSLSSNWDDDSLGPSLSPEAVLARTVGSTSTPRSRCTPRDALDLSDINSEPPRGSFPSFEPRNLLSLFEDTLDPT

Row | IC50 | Compound
1 | 5 nM | Cc1ccc(O)c(C)c1-c1cc(C2CC2)c2nc(-c3ccncc3)[nH]c(=O)c2c1N [Compound 134, 5-amino-8-cyclopropyl-6-(3-hydroxy-2,6-dimethyl-phenyl)-2-(4-pyridyl)-3H-quinazolin-4-one]
2 | 244 nM | Cc1ccc(O)cc1-c1cc(-c2nc(C(=O)N3CCOCC3)cs2)c2c(c1N)C(=O)NC2 [Compound 157]
3 | 131 nM | Nc1c(-c2cccc3[nH]ncc23)cc(-c2nccs2)c2nc(C3CC3)[nH]c(=O)c12 [Compound 8]
4 | 10 nM | CN1CCN(c2ccc(-c3nc4c(Br)cc(-c5cccc6[nH]ncc56)c(N)c4c(=O)[nH]3)cn2)CC1 [Compound 24]
5 | 3 nM | Nc1c(-c2cccc3[nH]ncc23)cc(Br)c2nc(-c3ccc(NC4CCOC4)nc3)[nH]c(=O)c12 (centres unmarked) [Compound 19]
6 | 18 nM | Nc1c(-c2cccc3[nH]ncc23)cc(Br)c2nc(-c3ccc(N4CCC(O)CC4)nc3)[nH]c(=O)c12 [Compound 45]
7 | 645 nM | Cc1ccc(O)cc1-c1cc(-c2nc(C(=O)NCCO)cs2)c2c(c1N)C(=O)NC2 [Compound 145]
8 | 2 nM | Cn1ccc(-c2cc(-c3cccc4[nH]ncc34)c(N)c3c(=O)[nH]c(-c4ccncc4)nc23)n1 [Compound 61]
9 | 477 nM | Cc1ccc(O)cc1-c1cc(-c2ncc(C(=O)NC(C)C)s2)c2c(c1N)C(=O)NC2 [Compound 153]
10 | 1 nM | Nc1c(-c2cccc3[nH]ncc23)cc(-c2cnn(C3COC3)c2)c2nc(-c3ccncc3)[nH]c(=O)c12 [Compound 58]
11 | 3 nM | Nc1c(-c2cccc3[nH]ncc23)cc(C2=CCOCC2)c2nc(-c3ccncc3)[nH]c(=O)c12 [Compound 64]
12 | 253 nM | Cc1ccc(O)cc1-c1cc(-c2nc(Cl)cs2)c2c(c1N)C(=O)NC2 [Compound 161, 7-amino-4-(4-chlorothiazol-2-yl)-6-(5-hydroxy-2-methylphenyl)isoindolin-1-one]
13 | 11 nM | N#Cc1ccc(-c2cc(-c3cccc4[nH]ncc34)c(N)c3c(=O)[nH]cnc23)s1 [Compound 118]
14 | 990 nM | Nc1c(-c2cccc3[nH]ncc23)cc(-c2cccc(C(F)(F)F)c2)c2nc[nH]c(=O)c12 [Compound 49]
15 | 78 nM | CC(=O)Nc1ccc(-c2nc3c(-c4nccs4)cc(-c4cccc5[nH]ncc45)c(N)c3c(=O)[nH]2)cc1 [Compound 17]
16 | 4 nM | Nc1c(-c2cccc3[nH]ncc23)cc(-c2nccs2)c2nc[nH]c(=O)c12 [Compound 28]
17 | 1410 nM | Nc1c(-c2cccc3[nH]ncc23)cc(-c2nccs2)c2nc(C3CCOCC3)[nH]c(=O)c12 [Compound 13]
18 | 10 nM | CN1CCN(c2cc(-c3nc4c(Br)cc(-c5cccc6[nH]ncc56)c(N)c4c(=O)[nH]3)ccn2)CC1 [Compound 38]
19 | 7 nM | Cc1ccc2[nH]ncc2c1-c1cc(-c2cccc(OC3CCOCC3)n2)c2nc[nH]c(=O)c2c1N [Compound 110]
20 | 15 nM | Nc1c(-c2cccc3[nH]ncc23)cc(-c2nccs2)c2nc(-c3ccc(N4CCOCC4)nc3)[nH]c(=O)c12 [Compound 2]
21 | 30 nM | Nc1c(-c2cccc3[nH]ncc23)cc(-c2ccc(F)cc2)c2nc[nH]c(=O)c12 [Compound 48, 5-amino-8-(4-fluorophenyl)-6-(1H-indazol-4-yl) quinazolin-4(3H)-one]
22 | 10 nM | Cc1ccc2[nH]ncc2c1-c1cc(-c2cccc(OC[C@H]3COCCO3)n2)c2nc[nH]c(=O)c2c1N [Compound 97]
23 | 3 nM | CN1CCC(n2cc(-c3cc(-c4cccc5[nH]ncc45)c(N)c4c(=O)[nH]c(-c5ccncc5)nc34)cn2)CC1 [Compound 60]
24 | 11 nM | Nc1c(-c2cccc3[nH]ncc23)cc(-n2ccc(C3CC3)n2)c2nc(-c3cccnc3)[nH]c(=O)c12 [Compound 74, 5-amino-8-(3-cyclopropylpyrazol-1-yl)-6-(1H-indazol-4-yl)-2-(3-pyridyl)-3H-quinazolin-4-one]
25 | 9 nM | CN(C)c1ccc(-c2nc3c(Br)cc(-c4cccc5[nH]ncc45)c(N)c3c(=O)[nH]2)cn1 [Compound 12]
26 | 17 nM | Cc1ccc2[nH]ncc2c1-c1cc(-c2cccc(F)n2)c2nc[nH]c(=O)c2c1N [Compound 99]
